# Source: US20210382058A1, “PATIENT SELECTION FOR TREATMENT OF MYC POSITIVE CANCERS WITH INDENOISOQUINOLINES” (Purdue Research Foundation, priority 2020, published 2021)
# Read-outs that look alike come from different tables or passages of the source.
# Legend:
# [1] = test system: MYC protein expression in MCF-7 breast cancer cells; assay: Western blotting of MYC protein level in MCF-7 cells; format: cell-based, human; conditions: Homo sapiens, MCF7; western blotting, MCF-7 cells, 0.5, 1, 2, and 4 μM, 24 hours; read-out: MYC Inhibition
# How it was run: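 MCF-7 cells were exposed to compounds at 0.5, 1, 2 and 4 μM for 24 hours at 37° C. MYC was detected by immunoblot with ECL, using rabbit anti-MYC (1:1000) and anti-GAPDH (1:2000) as loading control.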
# [2] = test system: NCI-60 cancer cell lines; assay: NCI-60 cancer cell line drug screen (GI50, MGM); format: cell-based, human; conditions: Homo sapiens; for GI50: read-out: Antiproliferative Activities [GI50 (μM)]
# Protocol: Cancer cells were incubated with the test compounds at five concentrations ranging from 100 μM to 10 nM for 48 h. […] The approximate average of GI50 values across the entire panel of NCI-60 cancer cell lines for each compound was recorded as the MGM value.
# [3] = target: T1, human topoisomerase I (Homo sapiens, UniProt P11387); conditions: relative topoisomerase I inhibition levels, previously determined, six levels (0 - 5, +++++ = 5); cited from earlier work
# T1 sequence (P11387 1-765): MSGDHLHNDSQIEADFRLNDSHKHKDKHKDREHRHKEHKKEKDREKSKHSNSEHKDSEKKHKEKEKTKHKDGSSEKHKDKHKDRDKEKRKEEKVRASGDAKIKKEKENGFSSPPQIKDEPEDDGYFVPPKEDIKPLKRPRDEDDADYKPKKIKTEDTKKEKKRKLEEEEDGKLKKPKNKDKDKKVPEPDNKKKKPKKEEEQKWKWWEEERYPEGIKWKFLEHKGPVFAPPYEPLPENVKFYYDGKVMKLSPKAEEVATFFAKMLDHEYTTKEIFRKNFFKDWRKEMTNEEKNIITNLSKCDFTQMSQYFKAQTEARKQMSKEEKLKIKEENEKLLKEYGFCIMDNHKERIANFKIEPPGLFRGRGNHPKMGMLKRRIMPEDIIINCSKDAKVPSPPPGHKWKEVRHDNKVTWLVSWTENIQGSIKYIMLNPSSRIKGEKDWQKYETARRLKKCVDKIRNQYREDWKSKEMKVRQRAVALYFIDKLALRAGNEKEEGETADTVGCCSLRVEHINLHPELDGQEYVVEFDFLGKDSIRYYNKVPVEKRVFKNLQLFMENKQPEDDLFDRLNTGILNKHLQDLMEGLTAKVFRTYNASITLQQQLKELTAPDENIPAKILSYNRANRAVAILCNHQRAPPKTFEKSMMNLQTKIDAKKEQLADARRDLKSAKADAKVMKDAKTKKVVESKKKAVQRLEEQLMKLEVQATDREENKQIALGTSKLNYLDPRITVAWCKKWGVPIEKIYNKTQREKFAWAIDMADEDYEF
smiles,measurement,setting,value
CN(C)CCCn1c2c(c3ccc(-c4ccn[nH]4)cc3c1=O)C(=O)c1ccccc1-2 [Compound 30],minimal effective concentration,[1],4 µM
same,GI50,"[2]; 786-0, Renal Cancer, 786-0",0.22 µM
same,GI50,"[2]; A498, Renal Cancer, A498",10.6 µM
same,GI50,"[2]; A549, Non-Small Cell Lung Cancer, A549/ATCC",0.06 µM
same,GI50,"[2]; ACHN, Renal Cancer, ACHN",0.09 µM
same,GI50,"[2]; BT-549, Breast Cancer, BT-549",3.1 µM
same,GI50,"[2]; CCRF-CEM, Leukemia, CCRF-CEM",0.03 µM
same,GI50,"[2]; COLO 205, Colon Cancer, COLO 205",4.92 µM
same,GI50,"[2]; DU-145, Prostate Cancer, DU-145",0.2 µM
same,GI50,"[2]; EKVX, Non-Small Cell Lung Cancer, EKVX",2.91 µM
same,GI50,"[2]; HCC 2998, Colon Cancer, HCC-2998",10 µM
same,GI50,"[2]; HCT-15, Colon Cancer, HCT-15",0.09 µM
same,GI50,"[2]; HCT-116, Colon Cancer, HCT-116",0.39 µM
same,GI50,"[2]; HL-60, Leukemia, HL-60(TB)",0.03 µM
same,GI50,"[2]; HOP-62, Non-Small Cell Lung Cancer, HOP-62",0.18 µM
same,GI50,"[2]; HOP-92, Non-Small Cell Lung Cancer, HOP-92",0.13 µM
same,GI50,"[2]; HT-29, Colon Cancer, HT29",0.34 µM
same,GI50,"[2]; Hs-578T, Breast Cancer, HS 578T",4.9 µM
same,GI50,"[2]; IGROV-1, Ovarian Cancer, IGROV1",0.58 µM
same,GI50,"[2]; K562, Leukemia, K-562",0.34 µM
same,GI50,"[2]; KM12, Colon Cancer, KM12",0.53 µM
same,GI50,"[2]; LOX IMVI, Melanoma, LOX IMVI",0.1 µM
same,GI50,"[2]; Leukemia, SR",0.02 µM
same,GI50,"[2]; MCF7, Breast Cancer, MCF7",0.04 µM
same,GI50,"[2]; MDA-MB-231, Breast Cancer, MDA-MB-231/ATCC",1.27 µM
same,GI50,"[2]; MDA-MB-435, Melanoma, MDA-MB-435",10.3 µM
same,GI50,"[2]; MDA-MB-468, Breast Cancer, MDA-MB-468",7.84 µM
same,GI50,"[2]; MOLT-4, Leukemia, MOLT-4",0.02 µM
same,GI50,"[2]; Malme-3M, Melanoma, MALME-3M",0.93 µM
same,GI50,"[2]; Melanoma, M14",1.65 µM
same,GI50,"[2]; NCI-H23, Non-Small Cell Lung Cancer, NCI-H23",0.24 µM
same,GI50,"[2]; NCI-H226, Non-Small Cell Lung Cancer, NCI-H226",0.27 µM
same,GI50,"[2]; NCI-H322M, Non-Small Cell Lung Cancer, NCI-H322M",7.05 µM
same,GI50,"[2]; NCI-H460, Non-Small Cell Lung Cancer, NCI-H460",0.04 µM
same,GI50,"[2]; NCI-H522, Non-Small Cell Lung Cancer, NCI-H522",0.84 µM
same,GI50,"[2]; OVCAR-3, Ovarian Cancer, OVCAR-3",6.09 µM
same,GI50,"[2]; OVCAR-4, Ovarian Cancer, OVCAR-4",1.45 µM
same,GI50,"[2]; OVCAR-5, Ovarian Cancer, OVCAR-5",1.51 µM
same,GI50,"[2]; OVCAR-8, Ovarian Cancer, OVCAR-8",0.16 µM
same,GI50,"[2]; Ovarian Cancer, NCl/ADR-RES",1.48 µM
same,GI50,"[2]; Prostate Cancer, PC-3",1.21 µM
same,GI50,"[2]; RPMI-8226, Leukemia, RPMI-8226",0.12 µM
same,GI50,"[2]; RXF 393, Renal Cancer, RXF 393",1.66 µM
same,GI50,"[2]; Renal Cancer, U0-31",0.3 µM
same,GI50,"[2]; SF-268, CNS Cancer, SF-268",1.85 µM
same,GI50,"[2]; SF-295, CNS Cancer, SF-295",0.36 µM
same,GI50,"[2]; SF-539, CNS Cancer, SF-539",1.04 µM
same,GI50,"[2]; SK-MEL-2, Melanoma, SK-MEL-2",18.2 µM
same,GI50,"[2]; SK-MEL-5, Melanoma, SK-MEL-5",0.48 µM
same,GI50,"[2]; SK-MEL-28, Melanoma, SK-MEL-28",2.01 µM
same,GI50,"[2]; SK-OV-3, Ovarian Cancer, SK-OV-3",1.21 µM
same,GI50,"[2]; SN12C, Renal Cancer, SN12C",0.25 µM
same,GI50,"[2]; SNB-19, CNS Cancer, SNB-19",0.33 µM
same,GI50,"[2]; SNB-75, CNS Cancer, SNB-75",1.39 µM
same,GI50,"[2]; SW-620, Colon Cancer, SW-620",0.2 µM
same,GI50,"[2]; T47D, Breast Cancer, T-47D",0.63 µM
same,GI50,"[2]; TK-10, Renal Cancer, TK-10",2.75 µM
same,GI50,"[2]; U-251, CNS Cancer, U251",0.18 µM
same,GI50,"[2]; UACC-62, Melanoma, UACC-62",0.72 µM
same,GI50,"[2]; UACC-257, Melanoma, UACC-257",12.3 µM
same,mean GI50 across NCI-60 panel (MGM),[2]; average of GI50 values across the entire panel of NCI-60 cancer cell lines,600 nM
same,Top1 Inhibiton,[3],"0 (no inhibition, 0, no MYC expression inhibition up to 4.0 μM)"
